We go through four compounds from patent publication US20040023910A1, “Use of cyr61 in the treatment and diagnosis of human uterine leiomyomas” (priority 2003, published 2004).

For assay [1], the system named is Cyr61 in leiomyoma tissues. As to the kind of experiment: Ex vivo treatment of leiomyoma explants with sex steroids and growth factors, Cyr61 mRNA by Northern blotting. In kind it is cell-based, human. As to conditions: leiomyoma explants ex vivo (n=8), 10 nM E2 or 10 ng/ml bFGF, 1 h. The text has this: (§1) Study subjects and tissue procurement Uterine leiomyomas and matched myometrial specimens were obtained according to protocols approved by the Institutional Review Boards following routine hysterectomy at the Department of Obstetrics and Gynecology, Pennsylvania Hospital. Tissue samples were provided from patients between the ages of 38 to 53 (median age=45) who were not on hormone replacement therapy nor prescribed gonadotropin releasing hormone agonists (n=38). All but one patient had experienced normal menstrual cycles prior to surgery. Tissue specimens were immediately frozen in liquid nitrogen following hysterectomies for total RNA isolation or fixed in 10% neutral-buffered formalin for in situ hybridization. Tissues for ex vivo culturing were placed in phenol-red free DMEM/Ham's F12 media (Gibco BRL, Rockville, Md.) containing 100 U/ml penicillin, […], and 250 ng/ml amphotericine B as a fungizone and transported on ice.
Northern blotting for Cyr61 and ER a Total cellular RNA was isolated from myometrial and leiomyoma tissue homogenates by guanidium isothiocynate lysis followed by phenol/chloroform extraction. Subsequently, total cellular RNA (20 μg) was subjected to electrophoresis in a 1% agarose gel containing 1 M formaldehyde. […]

The test system of assay [2] is Cyr61 in murine and human fibroblasts. As to conditions: Nathans et al. 1988; cited from earlier work.
Assay [3] has as its system Cyr61 transcript levels in myometrial tissue. The assay can be described thus: Ex vivo treatment of myometrial explants with sex steroids and growth factors, Cyr61 mRNA by Northern blotting. Type of assay: cell-based, human.
Source text: as §1
Northern blotting for Cyr61 and ER a Total cellular RNA was isolated from myometrial and leiomyoma tissue homogenates by guanidium isothiocynate lysis followed by phenol/chloroform extraction. Subsequently, total cellular RNA (20 μg) was subjected to electrophoresis in a 1% agarose gel containing 1 M formaldehyde. Separated RNA transcripts were transferred onto nylon membranes by […] and subsequently prehybridized at 60° C. in RapidHyb hybridization solution (Amersham, Arlington Heights, Ill.). A 0.41 kb human Cyr61 cDNA fragment was radiolabeled with [α-^32P]-dCTP (3,000 Ci/mmol) using the random-primer technique (Rediprime II, Amersham) and used as the hybridization probe. The radiolabeled probe (1×10^6 cpm/ml) was hybridized to membranes for 4 h at 60° C. Membranes were washed twice in 1×SSPE (0.15 M NaCl, […], and 0.01 M sodium phosphate, pH 7.4) and 0.1% SDS for 15 min at 25° C., followed by a final wash in 0.1×SSPE and 0.1% SDS for 5 min at 60° C. For estrogen receptor α (ERα) expression, membranes were reprobed with a 1.96 kb human ERα cDNA (1.96 kb full length coding region) that was radiolabeled with [α-^32P]-dCTP (3,000 Ci/mmol), hybridized and washed as described above. Relative levels of Cyr61 were normalized to glyceraldehyde-3-phosphate dehydrogenase (GAPDH) after reprobing membranes with a ^32P-radiolabeled oligonucleotide according to manufacturers protocol (endlabeling kit, GibcoBRL, Rockville, Md.).
Tissue treatment with sex steroids and growth factors Tissue specimens obtained as described above were immediately minced into 1-2 mm pieces using sterilized scalpels and forceps and placed in phenol-red free DMEM/Ham's F12 containing antifingal and antibiotic agents only. […]

“bFGF: basic fibroblast growth factor, purchased from R & D Systems, Inc.”: the “upregulation of Cyr61 in leiomyoma tissues” value in assay [1] is “neither E2 nor bFGF was able to upregulate Cyr61”. The “induction of Cyr61” value in assay [2] is “induces Cyr61”.

Turning to `C[C@]12CC[C@@H]3c4ccc(O)cc4CC[C@H]3[C@@H]1CC[C@@H]2O` [E2, 17β-estradiol], the “upregulation of Cyr61 in leiomyoma tissues” value in assay [1] is reported as “neither E2 nor bFGF was able to upregulate Cyr61”. In assay [3] (myometrial explants ex vivo (n=8), 1 h, 10 nM E2, 10 ng/ml bFGF or serum, normalized to GAPDH), the “increase in Cyr61 transcript levels” value was “greater than 2 fold”. Take `C[C@]12CC[C@@H]3c4ccc(O)cc4C[C@@H](CCCCCCCCC[S+]([O-])CCCC(F)(F)C(F)(F)F)[C@H]3[C@@H]1CC[C@@H]2O` (stereo partly shown) [ICI 182,780]: in assay [3] (myometrial explants ex vivo, combination of 10 nM E2 and 1 μM ICI 182,780, 1 h), the “inhibition of E2 mediated induction of Cyr61” value is given as “completely inhibited”. As to `CCC(=O)[C@@]1(C)CC[C@H]2[C@@H]3CCC4=CC(=O)CCC4=C3CC[C@@]21C` [R5020], the “effect on Cyr61 expression” value in assay [3] (myometrial explants ex vivo, 10 nM R5020, 1 h) was “no effect on Cyr61 expression”. Further, in assay [3] (myometrial explants ex vivo, combination of 10 nM E2 and 10 nM R5020, 1 h), the “synergy with E2 on Cyr61 expression” value is on record as “nor did it synergize with E2”.
